Test results taken from patent US9388215B2, “Compositions and methods of using islet neogenesis peptides and analogs thereof” (SHENZHEN HIGHTIDE BIOPHARMACEUTICAL, LTD., priority 2013, dated 2016).
Read-outs that look alike come from different tables or passages of the source.

Tests used:
[1] = Pharmacokinetics in SD rats after single subcutaneous dose (Example X); type: in vivo, rat; conditions: plasma, sc, male Sprague-Dawley rat, subcutaneous, 25 mg/kg; for AUC(0-t): read-out: AUC(0-t); for AUC(0-inf): read-out: AUC(0-∞); for Cmax: read-out: Cmax
Experimental: After 7 days acclimation, a total of 15 male Sprague-Dawley (SD) rats (body weight: 230 to 270 g) in good health from Sino-British SIPPR/BK Lab Animal Ltd, Shanghai, were used in the study. All peptides, Peptide 1, Peptide 12, Peptide 16, Peptide 29 or Peptide 31, were dissolved in sterile normal saline respectively to yield the desired final concentrations and were administered via single subcutaneous (sc) dose.
Three animals in each group were used for blood collection at the time point of 5 min, 15 min, 30 min, 1 h, 2 h, 4 h, 6 h, 8 h and 24 h post-dose. Blood samples (approximately 400 μL) were collected and placed into tubes containing EDTA-K2 (dipotassium ethylene diamine tetraacetic acid) and centrifuged at 8000 rpm for 6 minutes at 4° C. to separate plasma from the samples. The resulting plasma was stored frozen at −80° C. until being analyzed.
Plasma concentrations of peptides were determined using tandem mass spectrometry (LC-MS/MS) analysis. A non-compartmental module of WinNonlin® Professional 5.2 (Pharsight; St. Louis Mo.) was used to calculate PK parameters. AUC(0-t) represents area under the curve from the time of dosing to the time of the last observation, the AUC(0-∞) represents area under the curve from the time of dosing to infinity, and the Cmax represents maximum concentration detected.

[2] = Peptide concentration in plasma and pancreas 30 min post dose; type: in vivo, rat; conditions: male SD rats, sc bolus 25 mg/kg, 30 min post-dose; for level at 0.5 h: male, Sprague-Dawley, rat, sc, 25 mg/kg
Experimental: To further characterize the pharmacokinetic (PK) properties of peptides, peptide concentration in pancreas—the target organ, was determined 30 min post dose. Briefly, INGAP-PP (Peptide 1), Peptide 12, or Peptide 31 was dissolved in sterile normal saline and then was administered via subcutaneous (sc) bolus at the dose level of 25 mg/kg to male Sprague-Dawley (SD) rats. Five animals in each group were used for blood and pancreas collection at the time point of 30 min post-dose. Blood samples (approximately 400 μL) were collected and placed into tubes containing EDTA-K2 and centrifuged at 8000 rpm for 6 minutes at 4° C. to separate plasma from the samples. After blood extraction and animal sacrifice, the pancreas was removed immediately from each animal, cleared of fat and lymph nodes, weighed, and placed into 5 fold volume of ice cold sterile normal saline with protease inhibitor cocktail (Merck Millipore, catalogue #539137) to homogenize with a homogenizer.
The peptide concentration of the plasma and pancreatic homogenate was determined immediately using tandem mass spectrometry (LC-MS/MS) analysis and the results are presented in Table 8.

[3] = type: physicochemical; conditions: pH 5
Experimental: Peptide stability in buffers was tested for INGAP-PP and selected analogs. 10 mg/mL of Peptide 1, Peptide 12, Peptide 16, Peptide 29 or Peptide 31 was dissolved in isotonic buffers with pH ranging from 4.0 to 8.0. […] Peptide 12 and Peptide 29 were stable in an isotonic phosphate buffer (pH 7.4) for more than 90 days at 4° C. (there was no sign of degradation at 90 days sample check point), and 60 days at 25° C.

[4] = Pharmacokinetics in rat, subcutaneous bolus (Example VII); type: in vivo; conditions: male, Sprague-Dawley, plasma, RAT (SC), 25 mg/kg; for AUC(0-t): read-out: AUC(0-t); for AUC(0-inf): read-out: AUC(0-∞); for Cmax: read-out: Cmax
Experimental: After 7 days acclimation, male Sprague-Dawley (SD) rats weighing 210-250 g, or male C57BL/6 mice, weighing 19-24 g, in good health were used in the study. Peptide 1, Peptide 12 and Peptide 16 were dissolved in sterile normal saline and then they were injected via subcutaneous (sc) bolus or intravenous (iv) bolus at the dose level of 25 mg/kg. Three animals in each group were used for blood collection at the time point of 5 min, 15 min, 30 min, 1 h, 2 h, 4 h, 6 h, 8 h and 24 h post-dose. Blood samples (approximately 400 μL) were collected and placed into tubes containing EDTA-K2 and centrifuged at 8000 rpm for 6 minutes at 4° C. to separate plasma from the samples. The resulting plasma was stored frozen at −80° C. until being analyzed. Plasma concentrations of peptides were determined using tandem mass spectrometry (LC-MS/MS) analysis. A non-compartmental module of WinNonlin® Professional 5.2 (Pharsight; St. Louis Mo.), was used to calculate PK parameters. The abbreviation AUC(0-t) represents area under the curve from the time of dosing to the time of the last observation, the AUC(0-∞) represents area under the curve from the time of dosing to infinity, and the Cmax represents maximum concentration detected.

[5] = plasma, read-out: Peptide concentration, Plasma

AUC(0-t) [1] [ng·h/mL] | AUC(0-inf) [1] [ng·h/mL] | Cmax [1] [ng/mL] | level at 0.5 h ([2]; pancreas (homogenate), pancreatic homogenate, read-out: Peptide concentration, Pancreas) [ng/mL] | level at 0.5 h [2, 5] [ng/mL] | time stable in isotonic acetate buffer (pH 5.0) at 4° C. [3] | time stable in isotonic acetate buffer (pH 5.0) at 25° C. [3] | AUC(0-t) [4] [ng·h/mL] | AUC(0-inf) [4] [ng·h/mL] | Cmax [4] [ng/mL] | Substance | Peptide concentration, Pancreas ([2]; pancreatic homogenate)
15600 ± 1530 | 15600 ± 1530 | 26000 ± 3100 | 1630 ± 340 | 15400 ± 3520 | up to 90 days | less than 7 days |  |  |  | Ac-IGLHDPSHGTLPNGS-NH2 [Peptide 31, Ac-IGLHDPSHGTLPNGS-NH2] | 
11200 ± 1880 | 11200 ± 1880 | 22100 ± 5870 |  |  | up to 90 days | less than 7 days | 12100 | 12200 | 18900 | Ac-IGLHDPSHGTLPNGS-OH [Peptide 16, Ac-IGLHDPSHGTLPNGS-OH] | 
294 ± 125 | 298 ± 122 | 1190 ± 610 |  | 210 ± 107 |  |  | 298 | 305 | 1240 | H-IGLHDPSHGTLPNGS-OH [Peptide 1, H-IGLHDPSHGTLPNGS-OH, reference compound] | NA (Below the lower limit of quantitation (LLOQ) 2.5 ng/mL)
